In BigSolDB 2.1:

COc1cc([N+](=O)[O-])ccc1N
solubility (mole fraction)
Details | 278.15 K | 283.15 K | 288.15 K | 293.15 K | 298.15 K | 303.15 K | 308.15 K | 313.15 K | 318.15 K | 323.15 K
in 1,4-dioxane | – | – | 0.0402 | 0.0468 | 0.0556 | 0.0652 | 0.0775 | 0.0925 | 0.111 | 0.133
in DMSO | – | – | – | 0.235 | 0.249 | 0.264 | 0.281 | 0.3 | 0.321 | 0.344
in NMP | 0.256 | 0.272 | 0.287 | 0.303 | 0.321 | 0.339 | 0.359 | 0.38 | 0.402 | 0.426
in acetonitrile | 0.0118 | 0.0141 | 0.0175 | 0.0213 | 0.0269 | 0.0345 | 0.0433 | 0.0547 | 0.0683 | 0.0872
in ethanol | 0.00263 | 0.00307 | 0.00363 | 0.00438 | 0.00534 | 0.00636 | 0.0078 | 0.00978 | 0.0121 | 0.015
in ethyl acetate | 0.0186 | 0.0227 | 0.0269 | 0.0326 | 0.0398 | 0.0486 | 0.0596 | 0.0716 | 0.0854 | 0.103
in ethylene glycol | 0.0017 | 0.00201 | 0.00243 | 0.00284 | 0.00345 | 0.00424 | 0.00527 | 0.00643 | 0.00796 | 0.00973
in methanol | 0.00238 | 0.0028 | 0.00333 | 0.00392 | 0.00466 | 0.00565 | 0.00682 | 0.00844 | 0.0104 | 0.0129
in n-butanol | 0.00135 | 0.00166 | 0.00202 | 0.00248 | 0.00304 | 0.00371 | 0.00457 | 0.0057 | 0.0072 | 0.00886
in n-propanol | 0.00199 | 0.00239 | 0.0029 | 0.0035 | 0.00423 | 0.00512 | 0.00616 | 0.00738 | 0.00876 | 0.0104
in water | 4e-06 | 6e-06 | 7e-06 | 9e-06 | 1.3e-05 | 1.7e-05 | 2.4e-05 | 3.2e-05 | 4.2e-05 | 5.5e-05
